In PubChem BioAssay (NCI):
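Where inhibition never reached the appropriate level, the endpoint shown equals the highest concentration tested. Otherwise, values were interpolated linearly from a five-concentration, 48-hour dose response in 96-well plates. TGI: total growth inhibition.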

Tests used:
Test in all cases: NCI-60 cell line screen, 48 h
NCI-H23 lung = tested on: NCI-H23 lung
HCT-116 colon = tested on: HCT-116 colon
CCRF-CEM leukemia = tested on: CCRF-CEM leukemia
EKVX NSCLC = tested on: EKVX NSCLC
IGROV1 ovarian = tested on: IGROV1 ovarian
A498 renal = tested on: A498 renal
DLD-1 colon = tested on: DLD-1 colon
OVCAR-8 ovarian = tested on: OVCAR-8 ovarian
UO-31 renal = tested on: UO-31 renal
SK-MEL-28 melanoma = tested on: SK-MEL-28 melanoma
NCI-H460 lung = tested on: NCI-H460 lung
ACHN renal = tested on: ACHN renal
NCI-H226 lung = tested on: NCI-H226 lung
A549 NSCLC = tested on: A549 NSCLC
K-562 leukemia = tested on: K-562 leukemia
HL-60(TB) leukemia = tested on: HL-60(TB) leukemia
UACC-257 melanoma = tested on: UACC-257 melanoma
MDA-N = tested on: MDA-N
MDA-MB-435 = tested on: MDA-MB-435
RXF 393 renal = tested on: RXF 393 renal

SMILES | TGI (NCI-H23 lung) | TGI (HCT-116 colon) | TGI (CCRF-CEM leukemia) | TGI (EKVX NSCLC) | TGI (IGROV1 ovarian) | TGI (A498 renal) | TGI (DLD-1 colon) | TGI (OVCAR-8 ovarian) | TGI (UO-31 renal) | TGI (SK-MEL-28 melanoma) | TGI (NCI-H460 lung) | TGI (ACHN renal) | TGI (NCI-H226 lung) | TGI (A549 NSCLC) | TGI (K-562 leukemia) | TGI (HL-60(TB) leukemia) | TGI (UACC-257 melanoma) | TGI (MDA-N) | TGI (MDA-MB-435) | TGI (RXF 393 renal)
Ic1ncnc2c1ncn2C1CCCO1 (stereo not given) | > 100 µM | > 100 µM | > 100 µM | > 100 µM | > 100 µM | > 100 µM | > 100 µM | > 100 µM | > 100 µM | > 100 µM | > 100 µM | > 100 µM | > 100 µM | > 100 µM | > 100 µM | > 100 µM | > 100 µM | – | – | –
COc1cc2c[n+](C)c3c4cc5c(cc4ccc3c2cc1OC)OCO5 | 3.65 µM | 18.9 µM | 19.5 µM | 18.7 µM | 3.9 µM | 2.67 µM | > 31.6 µM | 29.9 µM | > 100 µM | > 82.4 µM | 14.7 µM | > 100 µM | 15.3 µM | 0.756 µM | 32.2 µM | 22.5 µM | > 59.8 µM | > 100 µM | > 100 µM | 49.7 µM
COC(=O)C(C)NP(=O)(N1CC1)N1CC1 (stereo not given) | > 100 µM | – | > 100 µM | > 100 µM | > 100 µM | > 100 µM | > 100 µM | > 100 µM | > 100 µM | > 100 µM | – | > 100 µM | – | > 100 µM | > 100 µM | > 100 µM | > 100 µM | – | – | > 100 µM
O=C1c2ccccc2C(O)(C(=O)O)C1(O)CC=C(Cl)Cl (stereo not given) | > 125 µM | > 125 µM | > 125 µM | > 125 µM | > 125 µM | > 125 µM | > 125 µM | > 125 µM | > 125 µM | > 125 µM | > 125 µM | – | > 125 µM | > 125 µM | > 125 µM | > 125 µM | > 125 µM | – | – | > 125 µM
COc1c2nc(CCl)[nH]c(=O)c2c(OC)c2nc(CCl)[nH]c(=O)c12 | > 100 µM | > 100 µM | > 100 µM | – | > 100 µM | – | > 100 µM | > 100 µM | > 100 µM | > 100 µM | > 100 µM | > 100 µM | > 100 µM | > 100 µM | > 100 µM | > 100 µM | > 100 µM | – | – | > 100 µM
